Experimental findings from patent US20230140926A1, “IONIC LIQUID, SOLVENT, PREPARATION, AND TRANSDERMALLY ABSORBABLE AGENT” (Kyushu University, National University Corporation, priority 2020, published 2023) are described below.

For data set [1], the system named is stratum corneum. Put plainly: Influence on stratum corneum of skin (FTIR). The settings on record: for Absorbance; CH2 asymmetric / Absorbance; CH2 symmetric / shift (cm^−1), CH2 asymmetric / shift (cm^−1), CH2 symmetric / shift (intensity), CH2 asymmetric / shift (intensity), CH2 symmetric: stratum corneum lipid; for Absorbance; CH2 asymmetric / Absorbance; CH2 symmetric / Absorbance; C═O amide-II / Absorbance; NH—C═O amide-I: FTIR, 30 minutes immersion; for shift (cm^−1), CH2 asymmetric / shift (cm^−1), CH2 symmetric / shift (intensity), CH2 asymmetric / shift (intensity), CH2 symmetric / shift (cm^−1), C═O amide-II / shift (cm^−1), NH—C═O amide-I / shift (intensity), C═O amide-II / shift (intensity), NH—C═O amide-I: versus untreated control; for Absorbance; C═O amide-II / Absorbance; NH—C═O amide-I / shift (cm^−1), C═O amide-II / shift (cm^−1), NH—C═O amide-I / shift (intensity), C═O amide-II / shift (intensity), NH—C═O amide-I: stratum corneum protein. Details: species or system pig.
Procedure: Frozen skin of a pig (YMPC, Hoshino Test Animal Breeding Co., Ltd.) was returned to room temperature, dried skin was warmed at 60° C. for from 60 to 120 seconds, and the epidermal layer was peeled from the skin. […] The isolated stratum corneum was washed with water and dried for an additional 24 hours. Sections of stratum corneum were immersed in test samples (IPM, Ionic Liquids 1, 2, 4, tween-80, DGME or PBS) in glass tubes for 30 minutes at room temperature. Stratum corneum sheets were washed with 20% ethanol and dried for 1 hour. The stratum corneum sheets were analyzed by Fourier transform infrared spectroscopy (FTIR) spectroscopy. Untreated stratum corneum was used as a control.

Data set [2] in a line: Evaluation of solubility of ionic liquids in a variety of solvents (visual). The format is physicochemical. As to conditions: 50:50 by weight, room temperature. As to the method:
The solubility of ionic liquids in a variety of solvents was evaluated at room temperature. Specifically, Ionic Liquids 1 to 3 were placed in a glass tube with respective solvents and mixed by stirring with a vortex mixer for from 1 to 2 minutes. The ratio of Ionic Liquids 1 to 3 to the corresponding solvents was 50:50 by weight. The solubility and transparency of the obtained liquids (liquid samples) were visually observed and evaluated according to the following criteria.
∘: Ionic liquid is dissolved uniformly and the clarity of the liquid sample is high
Δ: Ionic liquid is uniformly dissolved, but liquid sample is cloudy
×: Ionic liquid and solvent are separated, and the ionic liquid is not dissolved in the solvent. The same evaluation was performed for intermediate 2 ([EDMPC][Cl]) as a comparison.

Consider tween-80, for which, in data set [1], the “Absorbance; CH2 asymmetric” value was found to be 2920 cm⁻¹; the “Absorbance; CH2 symmetric” value was found to be 2853 cm⁻¹; the “shift (cm^−1), CH2 asymmetric” value stood at 2 cm⁻¹; the “shift (cm^−1), CH2 symmetric” value came to 2 cm⁻¹. Moreover, in data set [1], the “shift (intensity), CH2 asymmetric” value is reported as 2.80; the “shift (intensity), CH2 symmetric” value is listed as 1.30; the “Absorbance; C═O amide-II” value worked out at 1648 cm⁻¹; the “Absorbance; NH—C═O amide-I” value turned out to be 1542 cm⁻¹. In addition, in data set [1], the “shift (cm^−1), C═O amide-II” value worked out at 1 cm⁻¹; the “shift (cm^−1), NH—C═O amide-I” value is 5 cm⁻¹; the “shift (intensity), C═O amide-II” value came to 19.01; the “shift (intensity), NH—C═O amide-I” value is recorded as 16.14.

For the compound `CCCCCCCCCCCCCC(=O)OC[C@H](COP(=O)(OCC)OCC[N+](C)(C)C)OC(=O)CCCCCCCCCCCCC` (stereo partly shown) [Intermediate 2, EDMPC chloride], the “Solubility and transparency in Dimethyl sulfoxide” value in data set [2] (solvent Dimethyl sulfoxide) was “◯”. In addition, in data set [2] (solvent Ethanol), the “Solubility and transparency in Ethanol” value is “◯”. Moreover, the “Solubility and transparency in Isopropyl alcohol” value in data set [2] (solvent Isopropyl alcohol) is listed as “◯”. For the same compound, in data set [2] (solvent Isopropyl myristate), the “Solubility and transparency in Isopropyl myristate” value is listed as “◯”.

In the case of `CCCCCCCCCCCCCC(=O)OC(C)C` [IPM, isopropyl myristate], in data set [1], the “Absorbance; CH2 asymmetric” value came to 2920 cm⁻¹; the “Absorbance; CH2 symmetric” value turned out to be 2853 cm⁻¹; the “shift (cm^−1), CH2 asymmetric” value came to 2 cm⁻¹; the “shift (cm^−1), CH2 symmetric” value is 2 cm⁻¹. Also, in data set [1], the “shift (intensity), CH2 asymmetric” value came to 1.72; the “shift (intensity), CH2 symmetric” value is 1.08; the “Absorbance; C═O amide-II” value came out at 1648 cm⁻¹; the “Absorbance; NH—C═O amide-I” value came to 1539 cm⁻¹. For the same compound, in data set [1], the “shift (cm^−1), C═O amide-II” value came to 1 cm⁻¹; the “shift (cm^−1), NH—C═O amide-I” value came out at 2 cm⁻¹; the “shift (intensity), C═O amide-II” value came to 13.95; the “shift (intensity), NH—C═O amide-I” value came to 10.59.

As to `CCOCCOCCO` [DGME, diethylene glycol monoethyl ether], in data set [1], the “Absorbance; CH2 asymmetric” value turned out to be 2918 cm⁻¹; the “Absorbance; CH2 symmetric” value was 2853 cm⁻¹; the “shift (cm^−1), CH2 asymmetric” value was 0 cm⁻¹; the “shift (cm^−1), CH2 symmetric” value came out at 2 cm⁻¹. In data set [1], the “shift (intensity), CH2 asymmetric” value came out at 2.37; the “shift (intensity), CH2 symmetric” value was 1.25; the “Absorbance; C═O amide-II” value stood at 1648 cm⁻¹; the “Absorbance; NH—C═O amide-I” value stood at 1541 cm⁻¹. Moreover, in data set [1], the “shift (cm^−1), C═O amide-II” value came out at 1 cm⁻¹; the “shift (cm^−1), NH—C═O amide-I” value came to 4 cm⁻¹; the “shift (intensity), C═O amide-II” value came out at 18.00; the “shift (intensity), NH—C═O amide-I” value amounted to 14.31.
